According to patent US20150231069A1, “ORAL FORMULATIONS OF CHEMOTHERAPEUTIC AGENTS” (priority 2014, published 2015):
Where two headings read alike, the source gives them in different places.

Key:
[1] = female, FVB wild-type, mouse, in vivo
Method: Another set of experiments were performed with female FVB wild-type mice between 9 weeks and 16 weeks of age. Mice were housed and handed according to institutional guidelines.
For oral treatment with paclitaxel, with or without the inventive delivery system, 10 mg per g body weight of formulation was administered by gavage under light diethyl ether anesthesia. Blood samples were collected at 0, 15 min, 30 min, 1 h, 2 h, 4 h, 8 h, 12 h, and 16 h after oral administration.
For intravenous administration, 10 mg per g body weight of an i.v. formulation of paclitaxel was injected into a tail vein under light diethyl ether anesthesia. Blood samples were collected at 0, 15 min, 30 min, 1 h, 2 h, 4 h, 8 h, 12 h, and 16 h after i.v. administration.
Paclitaxel quantitation was based on the HPLC standard curves of the peak area and ratios of known amounts of paclitaxel to the internal standard peak from paclitaxel internal standard.

[2] = female, C57BL6, mouse, in vivo
Method: One set of experiments was performed in 21 female C57BL6 mice, 8 weeks of age. They were housed and handled according to institutional guidelines. Food and water were given ad libitum. All of the animal experiments were performed in full compliance with a protocol approved by the University Animal Use Committee.
For the oral treatment with paclitaxel (with or without delivery system), 10 mg per gram body weight of inventive formulation was administered by gavage under light diethyl ether anesthesia. Blood samples were collected at, 0, 15 min, 30 min, 1 h, 2 h, 4 h, 8 h, 12 h, and 16 h after drug administration of the oral formulation.
An i.v. formulation of paclitaxel 40 mg/kg was injected into a tail vein under light diethyl ether anesthesia at a dosage of 10 mg per gram body weight. Blood samples were collected at 0, 15 min, 30 min, 1 h, 2 h, 4 h, 8 h, 12 h, and 16 h after IV administration of paclitaxel.
Blood samples were analyzed with a pre-calibrated, validated HPLC method using HPLC Equipment. […] The solvent eluent was monitored using a Varian UV-Visible spectro-photometric detector set at 227 nm. […]
Paclitaxel quantitation was based on standard curves of the peak area and ratios of known amounts of paclitaxel to the internal standard peak from a paclitaxel internal standard. […]

[3] = system: MCF-7 cells; assay: Cytotoxicity against MCF-7 cell growth; type: cell-based, human
Method: The cellular uptake of non-targeted and folic acid (FA)-targeted tumor has affinity for folic acid (breast, tumor, ovarian tumors) microbeads as prepared above was evaluated in human breast carcinoma cell, MCF-7. The microbeads are made specifically to be retained by the tumor sites and tumors have affinity toward the drug and conjugate. To investigate the effect of time on the FA-targeted microbead uptake by FR-bearing cells, […]. MCF-7 cells were incubated with free rhodamine B (free R-B), plain micellar rhodamine B (DOMC/R-B) and FA-micellar rhodamine B (DOMC-FA/R-B) for various periods and visualized using fluorescence microscopy. The cytotoxicity of paclitaxel (PTX) in plain micelles (DOMC/PTX) and FA-micellar PTX (DOMC-FA/PTX) was investigated and compared with that of the free PTX and taxol injection using MCF-7 cells. […] In order to elucidate PTX-loaded micelles induced-apoptosis in MCF-7 cells, Hoechst staining of nuclei was observed after different treatments.

[4] = Human clinical bioavailability study, oral versus i.v. paclitaxel; type: in vivo
Method: An open label, two-treatment, single dose, two-period, cross-over, […] Paclitaxel BMS formulation (175 mg) in 11 patients (male or female) suffering from solid tumors, cancers and malignancies refractory to standard therapy were treated under fasting condition.
In this part of the study, the oral course and IV course were randomized. […]
The IV formulation of paclitaxel ([…]; Rhône-Poulenc Rorer/Aventis, Antony, France) was used for both IV and oral administration of the agent. One hour before oral paclitaxel administration, patients received 1 mg of oral granisetron and oral CsA capsules (500 mg). Patients who completed the first course of oral paclitaxel were eligible to receive IV paclitaxel.
Pharmacokinetic monitoring was performed during course i.v. and oral paclitaxel administration. For plasma paclitaxel and metabolite concentrations, blood samples of 5 mL each were collected in heparinized tubes. After oral administration, blood samples were obtained before dosing, at time 0 min and then 15, 30, 45, 60, 75, 90 minutes, and 2, 3, 4, 7, 10, 24, 30, and 48 h after paclitaxel ingestion. […] After centrifugation, the plasma was transferred to a polypropylene storage tube and stored at −20° C. until analyzed. Paclitaxel and metabolite concentrations in plasma were determined using a validated high-performance liquid chromatography (HPLC) assay.

CC(=O)O[C@H]1C(=O)[C@@]2(C)[C@H]([C@H](OC(=O)c3ccccc3)[C@]3(O)C[C@H](OC(=O)[C@H](O)[C@@H](NC(=O)c4ccccc4)c4ccccc4)C(C)=C1C3(C)C)[C@]1(OC(C)=O)CO[C@@H]1C[C@@H]2O [paclitaxel]
oral bioavailability (ratio of AUC after oral and after i.v., dose corrected) [1]: 6%±1.6
oral bioavailability (ratio of AUC after oral and after IV, dose corrected) [2]: 6%±1.6
growth of MCF-7 cells [3]: inhibited the growth of MCF-7 cells
AUC ([4]; both sexes, plasma, 75 mg/m2, oral 75 mg/m^2, without delivery system, read-out: mean AUC of orally administered paclitaxel): 420 ± 140 ng·h/mL
oral bioavailability (ratio of AUC after oral and after i.v., dose corrected) ([4]; without delivery system): 4.3%±1.8
